Data published in PubChem BioAssay (NCI).
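Method: 48-hour compound exposure of cells in 96-well plates, five concentrations, linear interpolation of endpoints. Abbreviation: GI50, concentration required for 50% inhibition of growth. TGI marks complete inhibition of growth.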 Where a SMILES comes first, the peptide text is derived from it.

Assays:
Experiment in all cases: inhibition of tumour cell growth, NCI panel, 48 h
[1] = tested on: SK-MEL-2 melanoma
[2] = tested on: NCI-H226 lung
[3] = tested on: NCI-H522 lung
[4] = tested on: A498 renal
[5] = tested on: CCRF-CEM leukemia
[6] = tested on: HT29 colon
[7] = tested on: LOX IMVI melanoma
[8] = tested on: HOP-92 NSCLC
[9] = tested on: UO-31 renal
[10] = tested on: MOLT-4 leukemia

| SMILES | TGI [1] [µM] | TGI [2] [µM] | TGI [3] [µM] | TGI [4] [µM] | TGI [5] [µM] | TGI [6] [µM] | TGI [7] [µM] | TGI [8] [µM] | TGI [9] [µM] | TGI [10] [µM] | GI50 [1] [µM] | GI50 [2] [µM] | GI50 [10] [µM] | GI50 [3] [µM] | GI50 [4] [µM] | GI50 [5] [µM] | GI50 [6] [µM] | GI50 [7] [µM] | GI50 [9] [µM] |
| --- | --- | --- | --- | --- | --- | --- | --- | --- | --- | --- | --- | --- | --- | --- | --- | --- | --- | --- | --- |
| COC(=O)c1c[nH]c2c1-c1cc(C(=O)OCc3ccccc3)n(S(=O)(=O)c3ccc(C)cc3)c1C(=O)C2=O | 0.521 | 0.889 | 0.607 | 3.16 | > 33.3 | 0.418 | 0.375 | 1.29 | 1.38 |  |  |  |  |  |  |  |  |  |  |
| COc1cc(S(=O)(=O)Nc2ccc(-c3csc(N4C(=O)C(Cl)C4c4ccccc4)n3)cc2)ccc1Cl (stereo not given) | > 100 |  | 33.9 | 68.8 | > 100 | > 100 |  | 33.7 | 63.1 | > 100 |  |  |  |  |  |  |  |  |  |
| O=C(O)CNn1c(SCC(=O)O)nnc(/C=C/c2c(O)ccc3ccccc23)c1=O | > 100 |  | > 100 | > 100 | 14.9 | > 100 | 31.8 |  | > 100 |  |  |  |  |  |  |  |  |  |  |
| Cc1c(N/C=C(\C#N)C(=O)c2ccc(Cl)cc2)c(=O)n(-c2ccccc2)n1C | > 100 | > 100 | > 100 | > 100 | > 100 |  | > 100 | > 100 | > 100 |  |  |  |  |  |  |  |  |  |  |
| CN(C)S(=O)(=O)n1cnc(CO)c1 | > 100 | > 100 | > 100 | > 100 |  |  | > 100 | > 100 | > 100 | > 100 |  |  |  |  |  |  |  |  |  |
| O=C(N/N=C/c1ccccc1O)c1ccccc1Nc1ccccc1C(=O)N/N=C/c1ccccc1O | > 100 | 3.79 | > 100 | > 100 | > 100 | 4.99 | > 100 |  | > 100 |  |  |  |  |  |  |  |  |  |  |
| COc1cc(Nc2nnc3n2S(=O)(=O)c2cc(C)c(Cl)cc2S3)cc(OC)c1 |  | 55.1 | 8.44 | 85.8 | > 100 | > 100 |  | 27 | > 100 | 60.9 |  |  |  |  |  |  |  |  |  |
| O=c1c2cc(Cl)ccc2[nH]c2cc(O)cc(O)c12 | > 10 | > 10 | > 10 | > 10 | > 10 | > 10 |  | > 10 |  | > 10 |  |  |  |  |  |  |  |  |  |
| SCc1ccc(CS)s1 |  |  | > 100 |  | > 100 | > 100 | > 100 | > 100 | > 100 | > 100 |  |  |  |  |  |  |  |  |  |
| O=C(Cc1nc2ncccc2[nH]c1=O)c1c[nH]c2ccccc12 | 30.8 |  | 35.4 | 31.7 | 40.3 | 60.9 | 44 | 38.4 | 32.5 | 94.8 |  |  |  |  |  |  |  |  |  |
| O=C1NC(=O)/C(=C/c2ccc(S(=O)(=O)N/N=C\C(O)C(O)C(O)C(O)CO)cc2)N1 (stereo not given) | > 100 | > 100 |  | > 100 | > 100 | > 100 | > 100 | > 100 | > 100 | > 100 |  |  |  |  |  |  |  |  |  |
| CC(C)CC(NC(=O)C(Cc1ccccc1)NC(=O)C(Cc1c[nH]c2ccccc12)NC(=O)CNC(=O)C(N)Cc1ccc(O)cc1)C(=O)O (stereo not given) (H-YGWFL-OH; configuration not given here) | > 100 | > 100 | 95.6 | 96 | > 100 | > 100 |  | 42.1 | > 100 | > 100 |  |  |  |  |  |  |  |  |  |
| N#Cc1c(O)cc(=O)n2c1[nH]c1ccccc12 | > 100 | > 100 | > 100 | > 100 | > 100 | > 100 |  | > 100 | > 100 | > 100 |  |  |  |  |  |  |  |  |  |
| Cc1cnc2c(c1)C(=O)C1=C(OC(C)(C)CC1O)C2=O (stereo not given) | > 100 | 37.5 | 31.4 |  | 51.1 | 43.6 | 25.8 | 30.5 | 29.7 | 44.3 |  |  |  |  |  |  |  |  |  |
| CCN(CC)CCCNc1nc(=O)[nH]c(C)c1C(=O)Nc1ccc2c(c1)c1ccccc1n2CC | > 100 | > 100 | > 100 |  | > 100 | > 100 | > 100 | > 100 | > 100 | > 100 |  |  |  |  |  |  |  |  |  |
| C=CC(Br)(CBr)CCC(Br)C(C)(C)Cl (stereo not given) | 29.5 | 52.9 | 2.79 | 9.46 | 7.45 | 2.9 |  | 4.32 | 3.97 | 4.05 |  |  |  |  |  |  |  |  |  |
| Cc1ccc(N=NN(C)C(=O)C(C)N)cc1 (stereo not given) | > 100 | > 100 | > 100 |  | > 100 | > 100 | > 100 | > 100 | > 100 | > 100 |  |  |  |  |  |  |  |  |  |
| COc1ccc(N=Nc2c(C)c(C#N)c(=S)n(C3OC(CO)C(O)C(O)C3O)c2C)cc1 (stereo not given) | > 100 |  |  |  | 89.2 | > 100 | > 100 | 64.8 | > 100 | 84.6 |  |  |  |  |  |  |  |  |  |
| NC(=O)C(=O)C(c1ccccc1)S(=O)(=O)Cc1ccccc1 (stereo not given) | > 100 | > 100 | > 100 |  | > 100 | > 100 | > 100 | > 100 | > 100 | > 100 |  |  |  |  |  |  |  |  |  |
| COC(=O)[C@@H](Cc1ccccc1)N1O[C@]12CCCC[C@@H]2NC(=O)OC(C)(C)C (stereo not given in full) | 49 | > 100 | 30.4 | > 100 | 35.9 | 32.2 |  | 55.5 | 27.5 | > 100 |  |  |  |  |  |  |  |  |  |
| COc1cc(-c2n/c(=C\c3c(O)[nH]c4cc(Cl)ccc34)cc3c2=Nc2ccccc2-3)cc(OC)c1OC | 12.3 | 21.9 | 18.4 | 27.9 | > 100 | 7.05 | 16 |  | > 100 | 8.35 | 2.51 | 3.85 | 2.72 | 3.85 | 7.12 | 3.88 | 2.67 | 2.76 | 18.3 |
| COC(=O)[C@]1(c2cc3ccccc3[nH]2)CC2CN(CC(=O)N(C)OC)C1CC2(OC)OC (stereo not given in full) | > 100 | > 100 | 44.6 | > 100 | 32 | > 100 | > 100 | > 100 | > 100 |  |  |  |  |  |  |  |  |  |  |
